Laboratory results reported in ChEMBL document CHEMBL1201862, “PubChem BioAssay data set” (2004).
Activity calls are given as the source filed them.

Legend:
P388/ADR = test: cells; assay type: functional; conditions: Mus musculus
SN12K1 = test: cells; assay type: functional; conditions: Homo sapiens
P388 = test: cells; assay type: functional; conditions: Mus musculus
INS1 = test: beta cell apoptosis inhibitors, cytokine rescue, dose response, luminescence, retest (AID 449756); assay type: functional, cell-based; conditions: Rattus norvegicus;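 further: cell death triggered by IL-1 beta plus TNF-alpha plus IFN-gamma mixture; protective hits raise ATP signal compared with cytokine alone wells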
cells = assay type: functional
[1] = target: T1, Rac GTPase-activating protein 1 (Homo sapiens, UniProt Q9H0H5); test: MgcRacGAP GTPase-activating activity inhibitors, confirmation, biochemical, ADP Hunter fluorescence, primary and confirmatory (AID 624330); assay type: functional
T1 sequence (Q9H0H5 whole entry): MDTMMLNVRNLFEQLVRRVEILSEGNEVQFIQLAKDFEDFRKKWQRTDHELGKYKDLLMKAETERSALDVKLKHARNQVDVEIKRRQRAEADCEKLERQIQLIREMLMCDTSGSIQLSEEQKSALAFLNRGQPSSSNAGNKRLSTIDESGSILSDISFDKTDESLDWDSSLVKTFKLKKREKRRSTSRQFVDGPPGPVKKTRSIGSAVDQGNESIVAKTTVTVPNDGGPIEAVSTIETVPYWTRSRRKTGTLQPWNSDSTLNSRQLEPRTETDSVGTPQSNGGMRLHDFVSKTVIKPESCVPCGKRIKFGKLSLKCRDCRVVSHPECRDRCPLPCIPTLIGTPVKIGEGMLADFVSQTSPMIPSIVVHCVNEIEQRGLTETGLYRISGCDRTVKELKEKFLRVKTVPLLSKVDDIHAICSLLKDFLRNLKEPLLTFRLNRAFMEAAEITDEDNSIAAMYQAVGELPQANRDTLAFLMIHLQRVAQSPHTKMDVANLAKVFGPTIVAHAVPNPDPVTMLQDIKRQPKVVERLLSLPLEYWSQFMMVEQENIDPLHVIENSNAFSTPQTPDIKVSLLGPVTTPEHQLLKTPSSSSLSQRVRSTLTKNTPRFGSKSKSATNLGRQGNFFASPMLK

[2] = HEp-2 cell cytotoxicity, dose response, cytotoxicity control for RSV inhibitor project, HTS (AID 2410); assay type: functional; conditions: human respiratory syncytial virus
[3] = target: T2, Corticotropin-releasing factor receptor 2/Corticotropin-releasing factor-binding protein (Homo sapiens, UniProt P24387+Q13324); test: activators of CRF receptor 2 with binding protein – uHTS hits, confirmation (AID 602473); assay type: functional; conditions: read-out: EC50_Mean
T2 sequence (Q13324 whole entry): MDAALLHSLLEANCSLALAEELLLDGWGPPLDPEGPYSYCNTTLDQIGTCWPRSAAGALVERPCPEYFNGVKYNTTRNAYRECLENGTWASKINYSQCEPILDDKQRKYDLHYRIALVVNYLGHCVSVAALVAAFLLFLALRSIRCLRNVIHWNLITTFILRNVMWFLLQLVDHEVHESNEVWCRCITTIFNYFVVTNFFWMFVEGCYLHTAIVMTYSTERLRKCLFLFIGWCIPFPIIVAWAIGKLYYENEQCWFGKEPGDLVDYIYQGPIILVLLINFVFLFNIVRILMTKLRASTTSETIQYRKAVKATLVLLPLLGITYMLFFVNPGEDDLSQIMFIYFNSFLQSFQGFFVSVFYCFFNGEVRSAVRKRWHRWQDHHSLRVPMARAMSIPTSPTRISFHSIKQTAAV
T2 sequence (P24387 whole entry): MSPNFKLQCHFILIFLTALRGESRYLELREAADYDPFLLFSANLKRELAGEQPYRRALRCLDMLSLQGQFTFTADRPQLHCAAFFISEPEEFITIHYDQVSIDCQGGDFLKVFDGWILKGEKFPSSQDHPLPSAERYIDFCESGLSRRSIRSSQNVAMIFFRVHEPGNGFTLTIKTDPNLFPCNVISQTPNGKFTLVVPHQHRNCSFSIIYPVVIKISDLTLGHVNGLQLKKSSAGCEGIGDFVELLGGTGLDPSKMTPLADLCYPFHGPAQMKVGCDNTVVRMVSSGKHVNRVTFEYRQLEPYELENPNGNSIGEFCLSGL

[4] = target: T2, Corticotropin-releasing factor receptor 2/Corticotropin-releasing factor-binding protein; test: Dose Response confirmation of uHTS hits for small molecule antagonists of the CRF-binding protein and CRF-R2 receptor complex.; assay type: functional; conditions: read-out: IC50_Mean
Cytochrome P450 2D6 = Cytochrome P450 2D6 (Homo sapiens, UniProt P10635);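 further: CYP2D6 member of a cytochrome P450 panel assay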
Cytochrome P450 3A4 = Cytochrome P450 3A4 (Homo sapiens, UniProt P08684);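 further: CYP3A4 tested as one member of a cytochrome P450 panel screen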
[5] = Luminescence Cell-Based Dose Retest to Confirm Inhibitors of Cancer Stem Cells. [Related pubchem assays (depositor defined):AID2717, AID2721]; assay type: functional; conditions: Homo sapiens
Cytochrome P450 1A2 = target: T3, Cytochrome P450 1A2 (Homo sapiens, UniProt P05177);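 further: PubChem cytochrome P450 panel assay, CYP1A2 panel member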
T3 sequence (P05177 whole entry): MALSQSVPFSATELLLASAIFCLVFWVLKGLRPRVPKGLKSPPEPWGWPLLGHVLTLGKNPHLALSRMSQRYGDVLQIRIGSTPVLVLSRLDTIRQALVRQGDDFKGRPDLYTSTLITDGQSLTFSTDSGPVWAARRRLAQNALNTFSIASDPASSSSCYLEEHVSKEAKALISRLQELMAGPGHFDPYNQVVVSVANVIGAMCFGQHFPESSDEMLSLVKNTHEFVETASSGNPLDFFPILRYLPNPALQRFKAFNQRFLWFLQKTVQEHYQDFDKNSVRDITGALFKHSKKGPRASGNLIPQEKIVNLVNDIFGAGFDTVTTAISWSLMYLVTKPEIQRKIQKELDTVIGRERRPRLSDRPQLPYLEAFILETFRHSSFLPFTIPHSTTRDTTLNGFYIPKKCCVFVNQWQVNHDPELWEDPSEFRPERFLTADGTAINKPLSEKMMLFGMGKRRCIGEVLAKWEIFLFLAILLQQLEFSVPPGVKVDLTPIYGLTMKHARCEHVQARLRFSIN

Cytochrome P450 3A4, sequence (P08684 whole entry): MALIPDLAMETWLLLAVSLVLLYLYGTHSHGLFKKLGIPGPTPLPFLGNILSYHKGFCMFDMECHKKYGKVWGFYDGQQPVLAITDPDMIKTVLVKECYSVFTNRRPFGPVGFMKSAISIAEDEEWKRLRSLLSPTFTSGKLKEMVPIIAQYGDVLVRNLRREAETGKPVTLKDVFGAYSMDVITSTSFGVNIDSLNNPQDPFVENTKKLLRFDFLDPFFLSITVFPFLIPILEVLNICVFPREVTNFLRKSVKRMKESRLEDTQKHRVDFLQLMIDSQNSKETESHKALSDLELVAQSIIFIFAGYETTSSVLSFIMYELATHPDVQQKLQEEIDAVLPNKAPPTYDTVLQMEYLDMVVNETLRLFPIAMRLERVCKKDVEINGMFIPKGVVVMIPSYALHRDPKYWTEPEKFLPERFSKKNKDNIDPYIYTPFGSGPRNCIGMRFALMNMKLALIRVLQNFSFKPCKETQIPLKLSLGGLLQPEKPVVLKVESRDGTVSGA
Cytochrome P450 2D6, sequence (P10635 whole entry): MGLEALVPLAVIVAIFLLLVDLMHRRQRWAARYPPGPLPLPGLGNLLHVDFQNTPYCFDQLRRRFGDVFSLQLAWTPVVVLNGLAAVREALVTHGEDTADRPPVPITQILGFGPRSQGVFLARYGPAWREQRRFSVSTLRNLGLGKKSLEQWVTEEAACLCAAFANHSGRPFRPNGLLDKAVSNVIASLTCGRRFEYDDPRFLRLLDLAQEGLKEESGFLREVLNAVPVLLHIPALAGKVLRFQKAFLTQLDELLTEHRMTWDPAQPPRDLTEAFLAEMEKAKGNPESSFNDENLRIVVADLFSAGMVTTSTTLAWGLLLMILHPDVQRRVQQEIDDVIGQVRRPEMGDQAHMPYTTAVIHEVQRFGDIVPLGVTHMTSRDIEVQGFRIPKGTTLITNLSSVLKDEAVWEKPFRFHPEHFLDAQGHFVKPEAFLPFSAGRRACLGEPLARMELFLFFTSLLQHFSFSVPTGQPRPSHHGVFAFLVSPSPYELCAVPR

O=NN(CCCl)C(=O)NC1CCSc2ccccc21 (stereo unspecified)
GI50 (P388/ADR): 27.9 µM (inactive) | GI50 (SN12K1): > 100 µM (inactive) | GI50 (P388): 21.1 µM (inactive)

Cc1c2ccnc(-c3ccccc3)c2cc2c1[nH]c1ccccc12
GI50 (P388/ADR): 2.63 µM (inactive) | GI50 (SN12K1): 1.39 µM (inactive) | GI50 (P388): 2.9 µM (inactive)

CCSc1ccc(NC(=O)c2cccnc2)cc1
AC50 (INS1): 7.23 µM (active)

O=C(OCc1cccc(F)c1)c1ccc2c(=O)n3c(nc2c1)CCC3
IC50 (cells): 12.1 µM (active)

CCCCOc1ccc(NC(=O)CN2CCN(CC)CC2)cc1
IC50 [1]: 71.7 µM (active)

CCCCOC(=O)Cn1c(-c2ccccc2)nc2ccccc2c1=O
IC50 (cells): 12.7 µM (active)

CCOC(=O)c1c(-c2ccccc2)csc1NC(=O)C(C)NCCCN1CCOCC1 (stereo unspecified)
IC50 [1]: 86.1 µM (active)

COc1cc(OC)cc(-c2c(-c3cccs3)c3cc(-c4cc[nH]n4)ccc3n2C)c1
CC50 [2]: 11.9 µM (active)

CN=C(S)NNC(=O)COc1cccc(C)c1C
CC50 [2]: 48.9 µM (active)

CCOC(=O)c1ccc(NC(=O)c2cccnc2)cc1
AC50 (INS1): 3.75 µM (active)

CCOc1ccc(CN2CCN(Cc3c[nH]c4ccccc34)CC2)cc1
IC50 [1]: 93 µM (active) | AC50 (INS1): 7.24 µM (active)

CC(Sc1nnnn1-c1ccccc1)C(=O)Nc1ccccc1-c1ccccc1 (stereo unspecified)
EC50 [3]: > 53 µM (inactive) | IC50 [4]: > 47.1 µM (inactive)

Cc1cc(C)cc(Oc2cc(NC(=O)c3cn(C)nc3C)cc([N+](=O)[O-])c2)c1
AC50 (INS1): 13.5 µM (active)

Cc1ccc(N(Cc2ccc([N+](=O)[O-])cc2)C(=O)c2ccco2)cc1
EC50 [3]: > 53 µM (inactive) | AC50 (Cytochrome P450 2D6): 0.562 µM (inconclusive) | AC50 (Cytochrome P450 3A4): 28.2 µM (inconclusive) | IC50 [4]: > 47.1 µM (inactive)

Cc1nc(-c2ccccc2)sc1C(=O)/C=C/c1ccc(Cl)cc1
AC50 [5]: 4.89 µM (active)

C=CCN(C(=O)Cn1nc(C)n2c(cc3cc(C)ccc32)c1=O)c1ccccc1
CC50 [2]: > 50 µM (active)

O=C(NCc1ccncc1)c1cc(-c2ccc(Cl)cc2)oc1C(F)(F)F
AC50 (INS1): 18.6 µM (active)

Cc1ccc(-n2nnnc2SCC(=O)Nc2cccnc2Cl)cc1
EC50 [3]: > 53 µM (inactive) | IC50 [4]: > 47.1 µM (inactive)

CC(=O)N1CCN(CC(O)COc2ccc(Br)cc2)CC1 (stereo unspecified)
IC50 [1]: 159 µM (active)

COc1cc(C=C2C(=O)NC(=O)NC2=O)ccc1OCc1ccc([N+](=O)[O-])cc1
IC50 [1]: 158 µM (active)

COc1cccc(OC)c1NC(=O)CN1CCN(C)CC1
IC50 [1]: 100 µM (active)

FC(F)(F)c1ccccc1N=C(S)N1CCc2ccccc2C1
AC50 (INS1): 8.78 µM (active)

COC(=O)c1cc(NC(S)=NCc2ccc(Cl)cc2)cc(C(=O)OC)c1
CC50 [2]: 26.3 µM (active)

CCc1ccc(NC(=O)c2cc3c(C)nc4ccccc4c3o2)cc1
CC50 [2]: 39.6 µM (active) | AC50 [5]: 6.51 µM (active)

[N-]=[N+]=CC(=O)OCC(N)C(=O)O (stereo unspecified)
GI50 (P388/ADR): 0.352 µM (active) | GI50 (SN12K1): 0.206 µM (active) | GI50 (P388): 0.156 µM (active)

CC(C)CN1CCN(Cc2cccc3nccnc23)CC1CCO (stereo unspecified)
EC50 [3]: > 53 µM (inactive) | IC50 [4]: > 47.1 µM (inactive)

COc1ccc(NC2CCCN(C(=O)c3cccc(C)n3)C2)cc1OC (stereo unspecified)
EC50 [3]: > 53 µM (inactive) | IC50 [4]: > 47.1 µM (inactive)

N#CC1=C(N)Oc2cc(O)c(/C=N/c3ccccc3)cc2C1c1ccccc1 (stereo unspecified)
CC50 [2]: 9.1 µM (active)

O=C(N/N=C/c1ccccc1Cl)C1CC1
EC50 [3]: > 53 µM (inactive) | IC50 [4]: > 47.1 µM (inactive)

Cc1csc(N/N=C/c2ccccn2)n1
AC50 [5]: 11.2 µM (active)

COc1cccc2c1C(=O)c1c(O)c3c(c(O)c1C2=O)C[C@@](O)(/C(C)=N/NC(=O)c1ccccc1)C[C@@H]3OC1CC(N)C(O)C(C)O1 (stereo partly specified)
GI50 (P388/ADR): 5.61 µM (inactive) | GI50 (SN12K1): 0.0586 µM (active) | GI50 (P388): 0.132 µM (active)

Nc1ccc2[nH]c3c(-c4ccccc4)nccc3c2c1
GI50 (P388/ADR): 19.9 µM (inactive) | GI50 (SN12K1): 22.3 µM (inactive) | GI50 (P388): 6.21 µM (inactive)

CCCCC(C)C1CCC2(C)C=CC(=O)C(C)=C2C1O (stereo unspecified)
GI50 (P388/ADR): > 100 µM (inactive) | GI50 (SN12K1): > 100 µM (inactive) | GI50 (P388): > 100 µM (inactive)

CC(=O)OCC1OC(n2cc(F)c(=O)[nH]c2=O)C(NC(=O)OCc2ccccc2)C(OC(C)=O)C1OC(C)=O (stereo unspecified)
GI50 (P388/ADR): > 100 µM (inactive) | GI50 (SN12K1): > 100 µM (inactive) | GI50 (P388): > 100 µM (inactive)

C/C(=N\Nc1nc(C)cc(-c2ccccc2)n1)c1ccccc1
AC50 (INS1): 2.37 µM (active)

CC1C(O)C2(Oc3cc4c(c5c3[C@@H](CC5O)[C@H]2C)CCC2Cc3nc5c(nc3C[C@@]42C)CC2CCC3C4=C[C@H]6O[C@@]7(O[C@@](C)(CO)C[C@@H]7O)C(C)[C@@]6(O)[C@]4(C)[C@@H](O)CC3[C@]2(C)C5)OC1(C)C (stereo partly specified)
GI50 (P388/ADR): 0.52 µM (active) | GI50 (SN12K1): 0.0278 µM (active) | GI50 (P388): 0.0278 µM (active)

C=C1C(=O)C[C@@]23CCC[C@@]12CC(O)C3 (stereo partly specified)
GI50 (P388/ADR): 5.15 µM (inactive) | GI50 (SN12K1): 17 µM (inactive) | GI50 (P388): 3.61 µM (inactive)

CCOC(=O)c1ccc(N[C@@H]2c3cc4c(cc3C(c3cc(OC)c(O)c(OC)c3)[C@H]3C(=O)OCC32)OCO4)cc1O (stereo partly specified)
GI50 (P388/ADR): 0.227 µM (active) | GI50 (SN12K1): 0.0887 µM (active) | GI50 (P388): < 0.01 µM (active)

COc1ccc2[nH]c3ccc4cc[n+](CCN5CCC(C6CCN(CC[n+]7ccc8ccc9[nH]c%10ccc(OC)cc%10c9c8c7)CC6)CC5)cc4c3c2c1
GI50 (P388/ADR): 1.84 µM (inactive) | GI50 (SN12K1): 0.417 µM (active) | GI50 (P388): 0.546 µM (active)

C/C(=C\c1ccc(C(=O)O)cc1)c1ccc2c(c1)C(C)(C)CCC2(C)C
AC50 [5]: 3.1 µM (active) | AC50 (Cytochrome P450 1A2): 31.6 µM (inconclusive)

Cc1ccc(/N=N/c2c(C)[nH]n(C(N)=S)c2=O)cc1
IC50 (cells): 5.24 µM (active)

C/C(N)=C(/C#N)C(=O)COC(=O)c1cc(-c2cccc3ccccc23)nc2ccccc12
CC50 [2]: 7.25 µM (active)

Nc1ncnc2c1ncn2[C@@H]1O[C@H](COP(=O)(O)O)[C@@H](O)[C@@H]1O
GI50 (P388/ADR): > 16.1 µM (inactive) | GI50 (SN12K1): > 50 µM (inactive) | GI50 (P388): > 7.93 µM (inactive)

C[C@@H]1O[C@@H](O[C@H]2CC[C@]3(C=O)[C@H]4CC[C@]5(C)[C@@H](c6ccc(=O)oc6)CC[C@]5(O)[C@@H]4CC[C@]3(O)C2)[C@H](O)[C@H](O)[C@H]1O[C@@H]1O[C@H](CO)[C@@H](O)[C@H](O)[C@H]1O [HELLEBRIN]
GI50 (P388/ADR): 113 µM (inactive) | GI50 (SN12K1): 0.0375 µM (active) | GI50 (P388): 64.7 µM (inactive)
